From patent US6528516B1, “Methods for reducing intraocular pressure using A3 adenosine receptor antagonists” (Trustees of the University of Pennsylvania, The Center for …, priority 1998, dated 2003)

Experiments:
[1] = system: rabbit iris-ciliary body; assay: Short-circuit current across intact rabbit ciliary epithelium (iris-ciliary body), 5 mM Ba2+; conditions: 30 μM, solvent-corrected
Text: Adult male Dutch belted rabbits weighing 1.8-2.4 kg (Ace Animals, Boyertown, Pa.) were anesthetized with pentobarbital and sacrificed (Carre et al., J. Membr. Biol. 146:293-305, 1995). After enucleation, the iris-ciliary body (I-CB) was isolated as previously described (Carre et al., 1995, supra.). The experiments were in accordance with the Resolution on the Use of Animals in Research of the Association for Research in Vision and Ophthalmology.
The pupil and central iris were occluded with a Lucite disc, and the iris-ciliary body was mounted between the two halves of a Lucite chamber (1). The annulus of exposed tissue provided a projected surface area of 0.93 cm^2. Preparations were continuously bubbled with 95%O2-5%CO2 for maintenance of pH 7.4 in a Ringer's solution comprising (in mM): 110.0 NaCl, 10.0HEPES (acid), 5.0HEPES (Na^+), 30.0 NaHCO3, 2.5 CaCl2, 1.2 MgCl2, 5.9 KCl, and 10.0 glucose, at an osmolality of 305 mOsm. BaCl2 (5 mM) was added to the solution to block K^+ currents. The transepithelial potential was fixed at 0 mV, corrected for solution series resistance, and the short-circuit current was monitored on a chart recorder. Data were digitally acquired at 10 Hz via a DigiData 1200A converter and AxoScope 1.1 software (Axon Instruments, Foster City, Calif.). Automatic averaging was performed with a reduction factor of 100 to achieve a final sampling rate of 6/min. […]

[2] = system: HCE cells; assay: Free intracellular Ca2+ in HCE cells (fura-2); type: cell-based, human
Protocol: In other cells, stimulation of the A3-receptor can lead to an elevation of intracellular Ca^2+(Kohno et al., supra.), so intracellular Ca^2+was monitored in HCE cells to provide an additional physiologic assay for the presence of A3 receptors. HCE cells grown on coverslips for 24-48 hrs were loaded with 1-5 μM fura-2 AM for 30-45 min at room temperature. The cells were subject to a post-incubation interval of 20-40 minutes at room temperature before recording began. The coverslips were mounted on a Nikon Diaphot microscope and visualized with a ×40 oil-immersion fluorescence objective. The emitted fluorescence (510 nm) from 10-12 confluent cells was acquired at a sampling frequency of 1 Hz following excitation at 340 nm and 380 nm, and the ratio was determined with a Delta-Ram system and Felix software (Photon Technology International Inc., Princeton, N.J.).Cells were perfused with an isotonic solution consisting of (in mM) 105 NaCl, 6HEPES (acid), 4HEPES (Na^+), 2 CaCl2, 1 MgCl2, 4 KCl, 5 glucose and 90 mannitol, at an osmolality of 327 mOsm, pH 7.4. […]
where Rmin and Rmax are the ratio of fluorescence at […] in the absence of Ca^2+, and in the presence of saturating Ca^2+, respectively. R is the ratio measured experimentally. The S2f and S2b are the fluorescence emitted at 380 nM in the Ca^2+ free and Ca^2+ bound states respectively. […]

CNC(=O)[C@H]1O[C@@H](n2cnc3c(NCc4cccc(I)c4)ncnc32)[C@H](O)[C@@H]1O [IB-MECA, N^6-(3-iodobenzyl)-adenosine-5′-N-methyluronamide]
effect on short-circuit current [1]: significant increase in the short-circuit current | mean rise of intracellular Ca2+ ([2]; 100 nM IB-MECA): 17 ± 5 nM | mean rise of intracellular Ca2+ ([2]; 1 μM IB-MECA): 22 ± 6 nM
